Assay [1] has as its system polynucleotide phophorylase. The conditions noted are these: cited from earlier work.
In the next assay the target is E. coli DNA polymerase I (Escherichia coli, UniProt P00582). Put plainly: Incorporation of tritium labeled nucleotide into acid insoluble polydeoxynucleotide by purified E. coli DNA polymerase I. The assay is classed as biochemical. The conditions noted are these: purified E. coli DNA polymerase I sample, 90 minute incubation period, tritium labeled substrate. Here is the method: (§1) To illustrate that suitable modified deoxynucleoside triphosphates and/or single stranded oligodeoxynucleotides which have impaired basing pairing abilities, as described above, are specific to TdT, tritium labeled ethenodeoxyadenosine triphosphate (etheno dATP) and tritium labeled deoxyadenosine triphosphate (dATP) were appropriately incubated with a purified TdT enzyme sample and with a purified E. coli DNA polymerase I sample.

Assay [2] concerns Terminal Deoxynucleotidyl Transferase (TdT). Put plainly: Incorporation of tritium labeled nucleotide into acid insoluble polydeoxynucleotides by purified TdT. The assay is classed as biochemical. The conditions noted are these: purified TdT enzyme sample, 90 minute incubation period, tritium labeled substrate. How it is done:
as §1

For another assay, the system named is TdT. The conditions noted are these: cited from earlier work.
The subject of assay [3] is other cellular DNA polymerases. The conditions noted are these: 100 mM ATP added (Mertelsmann); cited from earlier work.

Read-outs that look alike come from different tables or passages of the source.

E. coli DNA polymerase I, sequence (P00582 whole entry): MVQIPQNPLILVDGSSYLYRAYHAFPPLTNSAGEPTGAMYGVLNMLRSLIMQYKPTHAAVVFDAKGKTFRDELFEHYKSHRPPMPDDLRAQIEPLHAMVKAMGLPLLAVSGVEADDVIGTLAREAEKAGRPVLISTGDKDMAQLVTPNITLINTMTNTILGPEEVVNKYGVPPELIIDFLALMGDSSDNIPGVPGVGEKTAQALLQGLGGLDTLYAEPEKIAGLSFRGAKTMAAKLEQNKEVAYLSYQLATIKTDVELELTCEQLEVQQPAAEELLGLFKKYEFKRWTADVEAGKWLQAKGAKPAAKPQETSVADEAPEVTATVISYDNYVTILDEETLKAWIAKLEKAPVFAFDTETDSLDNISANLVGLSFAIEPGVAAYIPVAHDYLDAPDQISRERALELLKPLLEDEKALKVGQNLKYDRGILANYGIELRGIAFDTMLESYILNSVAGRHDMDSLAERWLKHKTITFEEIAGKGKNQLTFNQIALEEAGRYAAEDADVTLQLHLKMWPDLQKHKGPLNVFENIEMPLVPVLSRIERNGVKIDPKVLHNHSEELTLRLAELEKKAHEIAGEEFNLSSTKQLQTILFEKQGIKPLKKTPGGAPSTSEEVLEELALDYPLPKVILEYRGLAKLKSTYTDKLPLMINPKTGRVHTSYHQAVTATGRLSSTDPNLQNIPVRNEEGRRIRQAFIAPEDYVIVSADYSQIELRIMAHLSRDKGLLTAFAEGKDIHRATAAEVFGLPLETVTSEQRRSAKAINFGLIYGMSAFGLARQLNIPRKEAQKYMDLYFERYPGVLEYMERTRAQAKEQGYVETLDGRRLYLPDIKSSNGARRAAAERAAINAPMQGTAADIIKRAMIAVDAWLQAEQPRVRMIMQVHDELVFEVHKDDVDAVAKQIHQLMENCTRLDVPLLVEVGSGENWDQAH

6-dimethylaminoadenine: in assay [1], the “substrate for template independent RNA polymerase, polynucleotide phophorylase” value is “remains a substrate”.

Take `O=P(O)(O)OP(=O)(O)OP(=O)(O)OC[C@H]1O[C@@H](n2cnc3c2ncn2ccnc32)C[C@@H]1O` [etheno-dATP, 1,N^6 -ethenodeoxy-adenosine triphophate]: on E. coli DNA polymerase I, the “incorporation into acid insoluble polydeoxynucleotide” value is reported as “no detectable incorporation”. For the same molecule, the “incorporation into acid insoluble polydeoxynucleotides” value in assay [2] is on record as “progressive incorporation”.

For `CCN1C(=O)C=CC1=O` [N-ethylmaleimide], in the assay on TdT (10% ethanol and 10 mM N-ethylmaleimide added (Coleman)), the “inhibition of TdT activity” value is reported as “completely inhibit TdT activity”.

As to `Nc1ncnc2c1ncn2[C@@H]1O[C@H](COP(=O)(O)OP(=O)(O)OP(=O)(O)O)[C@@H](O)[C@H]1O` [ATP, adenosine triphosphate], the “inhibition of TdT activity” value with TdT (100 mM ATP added (Mertelsmann)) is listed as “specifically inhibits TdT”. In addition, the “effect on other cellular DNA polymerases” value in assay [3] is on record as “without affecting other cellular DNA polymerases”.

Regarding `Nc1ncnc2c1ncn2[C@H]1C[C@H](O)[C@@H](COP(=O)(O)OP(=O)(O)OP(=O)(O)O)O1` [dATP, deoxyadenosine triphosphate], the “incorporation into acid insoluble polydeoxynucleotide” value on E. coli DNA polymerase I was “normally and appreciably incorporated”. Besides, in assay [2], the “incorporation into acid insoluble polydeoxynucleotides” value is listed as “progressive incorporation”.

Source of the values: patent US4307189A, “Method for the quantitative determination of terminal deoxynucleotidyl transferase in biological samples” (priority 1980, dated 1981).
